Reference: PubChem BioAssay (NCI)
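Grown in 96-well plates, cells were treated for 48 hours with each compound at five concentrations. Insufficient inhibition: endpoint recorded as highest concentration tested. GI50 is the concentration that inhibits growth by half. Definition used: TGI = concentration required for complete inhibition of growth.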

Assays:
Assay in all cases: inhibition of tumour cell growth, NCI panel, 48 h
TK-10 renal = system: TK-10 renal
HOP-62 NSCLC = system: HOP-62 NSCLC
HS 578T breast = system: HS 578T breast
HCT-15 colon = system: HCT-15 colon
SK-MEL-2 melanoma = system: SK-MEL-2 melanoma
SNB-19 CNS = system: SNB-19 CNS
U251 CNS = system: U251 CNS
NCI/ADR-RES ovarian = system: NCI/ADR-RES ovarian
M14 melanoma = system: M14 melanoma
HCC-2998 colon = system: HCC-2998 colon
SF-268 CNS = system: SF-268 CNS
A549 NSCLC = system: A549 NSCLC
IGROV1 ovarian = system: IGROV1 ovarian
K-562 leukemia = system: K-562 leukemia
UO-31 renal = system: UO-31 renal
PC-3 prostate = system: PC-3 prostate
RPMI-8226 leukemia = system: RPMI-8226 leukemia
KM12 colon = system: KM12 colon
NCI-H23 lung = system: NCI-H23 lung
NCI-H460 lung = system: NCI-H460 lung
T-47D breast = system: T-47D breast
SR leukemia = system: SR leukemia
HOP-92 NSCLC = system: HOP-92 NSCLC
A498 renal = system: A498 renal
SK-OV-3 ovarian = system: SK-OV-3 ovarian
DU-145 prostate = system: DU-145 prostate
OVCAR-8 ovarian = system: OVCAR-8 ovarian
NCI-H226 lung = system: NCI-H226 lung
UACC-257 melanoma = system: UACC-257 melanoma
SW-620 colon = system: SW-620 colon
SK-MEL-28 melanoma = system: SK-MEL-28 melanoma
ACHN renal = system: ACHN renal
786-0 renal = system: 786-0 renal
MALME-3M melanoma = system: MALME-3M melanoma
HL-60(TB) leukemia = system: HL-60(TB) leukemia
HT29 colon = system: HT29 colon
OVCAR-4 ovarian = system: OVCAR-4 ovarian
EKVX NSCLC = system: EKVX NSCLC
UACC-62 melanoma = system: UACC-62 melanoma
COLO 205 colon = system: COLO 205 colon
NCI-H522 lung = system: NCI-H522 lung
OVCAR-5 ovarian = system: OVCAR-5 ovarian
SN12C renal = system: SN12C renal
SNB-75 CNS = system: SNB-75 CNS
SK-MEL-5 melanoma = system: SK-MEL-5 melanoma
MOLT-4 leukemia = system: MOLT-4 leukemia
MCF7 breast = system: MCF7 breast
MDA-MB-231 breast = system: MDA-MB-231 breast
RXF 393 renal = system: RXF 393 renal

Q: Which TGI (TK-10 renal) does the source give for `CC(C)(C)c1ccc(/C=N/NC(=O)CSCC(=O)N/N=C/c2ccc(C(C)(C)C)cc2)cc1` here?
A: 16.6 µM

Q: And the TGI (HOP-62 NSCLC)?
A: 5.84 µM

Q: What about the TGI (HS 578T breast) of the same compound?
A: 7.61 µM

Q: And the TGI (HCT-15 colon)?
A: 15.8 µM

Q: What about the TGI (SK-MEL-2 melanoma) of the same compound?
A: 5.72 µM

Q: And the TGI (SNB-19 CNS)?
A: 17.2 µM

Q: What about the TGI (U251 CNS) of the same compound?
A: 5.87 µM

Q: And the TGI (NCI/ADR-RES ovarian)?
A: 15.5 µM

Q: What about the TGI (M14 melanoma) of the same compound?
A: 3.89 µM

Q: What about the TGI (HCC-2998 colon) of the same compound?
A: 4.8 µM

Q: And the TGI (SF-268 CNS)?
A: 10.9 µM

Q: What about the TGI (A549 NSCLC) of the same compound?
A: 11.6 µM

Q: What about the TGI (IGROV1 ovarian) of the same compound?
A: 10.4 µM

Q: And the TGI (K-562 leukemia)?
A: 6.7 µM

Q: What about the TGI (UO-31 renal) of the same compound?
A: 15.7 µM

Q: And the TGI (PC-3 prostate)?
A: 18.2 µM

Q: What about the TGI (RPMI-8226 leukemia) of the same compound?
A: > 100 µM

Q: What about the TGI (KM12 colon) of the same compound?
A: 6.18 µM

Q: What about the TGI (NCI-H23 lung) of the same compound?
A: 6.01 µM

Q: What about the TGI (NCI-H460 lung) of the same compound?
A: 15 µM

Q: What about the TGI (T-47D breast) of the same compound?
A: 26.3 µM

Q: And the TGI (SR leukemia)?
A: 3.76 µM

Q: And the TGI (HOP-92 NSCLC)?
A: 38.9 µM

Q: What about the TGI (A498 renal) of the same compound?
A: 8.67 µM

Q: What about the TGI (SK-OV-3 ovarian) of the same compound?
A: 19.4 µM

Q: What about the TGI (DU-145 prostate) of the same compound?
A: > 100 µM

Q: And the TGI (OVCAR-8 ovarian)?
A: 6.49 µM

Q: What about the TGI (NCI-H226 lung) of the same compound?
A: 4.93 µM

Q: What about the TGI (UACC-257 melanoma) of the same compound?
A: 15.2 µM

Q: And the TGI (SW-620 colon)?
A: 6.11 µM

Q: And the TGI (SK-MEL-28 melanoma)?
A: 20.6 µM

Q: What about the TGI (ACHN renal) of the same compound?
A: 13.5 µM

Q: And the TGI (786-0 renal)?
A: 4.4 µM

Q: And the TGI (MALME-3M melanoma)?
A: 24.8 µM

Q: What about the TGI (HL-60(TB) leukemia) of the same compound?
A: 5.21 µM

Q: What about the TGI (HT29 colon) of the same compound?
A: 3.87 µM

Q: What about the TGI (OVCAR-4 ovarian) of the same compound?
A: > 100 µM

Q: What about the TGI (EKVX NSCLC) of the same compound?
A: 19.8 µM

Q: And the TGI (UACC-62 melanoma)?
A: 32 µM

Q: What about the TGI (COLO 205 colon) of the same compound?
A: 3.7 µM

Q: And the TGI (NCI-H522 lung)?
A: 21.9 µM

Q: And the TGI (OVCAR-5 ovarian)?
A: 12.5 µM

Q: And the TGI (SN12C renal)?
A: 4.82 µM

Q: And the TGI (SNB-75 CNS)?
A: 20.1 µM

Q: And the TGI (SK-MEL-5 melanoma)?
A: 4.3 µM

Q: And the TGI (MOLT-4 leukemia)?
A: 5.02 µM

Q: And the TGI (MCF7 breast)?
A: 6.05 µM

Q: What about the TGI (MDA-MB-231 breast) of the same compound?
A: 2.43 µM

Q: And the TGI (RXF 393 renal)?
A: 4.29 µM

Q: What does the source list for `COc1cc(/C=C/C(=O)c2ccc(NC(=O)CSc3nnc(-c4cc(OC)c(OC)c(OC)c4)n3-c3ccccc3)cc2)cc(OC)c1OC`?
A: GI50 (TK-10 renal): 9.3 µM; TGI (TK-10 renal): > 100 µM; GI50 (HOP-62 NSCLC): 1.84 µM; TGI (HOP-62 NSCLC): 7.06 µM; GI50 (HS 578T breast): 20.4 µM; TGI (HS 578T breast): > 100 µM; GI50 (SNB-19 CNS): 2.18 µM; TGI (SNB-19 CNS): > 100 µM; GI50 (U251 CNS): 0.527 µM; TGI (U251 CNS): > 100 µM; GI50 (SR leukemia): 0.316 µM; TGI (SR leukemia): > 100 µM; GI50 (HOP-92 NSCLC): 2.06 µM; TGI (HOP-92 NSCLC): 9.67 µM; GI50 (786-0 renal): 1.05 µM; TGI (786-0 renal): 4.63 µM; GI50 (OVCAR-4 ovarian): 1.8 µM; TGI (OVCAR-4 ovarian): > 100 µM; GI50 (SNB-75 CNS): 0.429 µM; TGI (SNB-75 CNS): 14.2 µM; GI50 (MDA-MB-231 breast): 4.09 µM; TGI (MDA-MB-231 breast): > 100 µM
